# Test results as given in patent US20070142352A1, “Pteridinone Derivatives as Modulators of Chemokine Receptor Activity” (ASTRAZENECA AB, priority 2001, published 2007).
row,SMILES,melting point [°C]
1,"C[C@H](CO)Nc1nc(SCc2cccc(F)c2F)nc2[nH]c(=O)c(NCCO)nc12 [Example 1, 2-[[(2,3-difluorophenyl)methyl]thio]-6-[(2-hydroxyethyl)amino]-4-[[(1R)-2-hydroxy-1-methylethyl]amino]-7(8H)-pteridinone]",197 to 199
2,"C[C@H](CO)Nc1nc(SCc2cccc(F)c2F)nc2[nH]c(=O)c(NCc3ccccc3)nc12 [Example 2, 2-[[(2,3-difluorophenyl)methyl]thio]-4-[[(1R)-2-hydroxy-1-methylethyl]amino]-6-[(phenylmethyl)amino]-7(8H)-pteridinone]",80 to 100
